From patent US11168058B2, “Manufacture of a crystalline pharmaceutical product” (ORION CORPORATION, priority 2017, dated 2021)

Key:
Format in all cases: physicochemical
[1] = Specific surface area (SSA) by three-point nitrogen adsorption (BET), TriStar 3000; conditions: for Specific surface area: Table 2, batch B; for Specific surface area / SSA: crystalline rounded particles before/after milling; for SSA: Table 1, batch A
Experimental: The specific surface area (SSA) of crystalline particles of compound (I) can be analyzed using the three-point nitrogen adsorption technique based on the Brunauer, Emmett and Teller (BET) theory, for example using TriStar 3000 automated gas adsorption analyzer, (Micromeritics, Inc.). The samples are suitably vacuum dried for 20 hours at 40° C. The volumetric method can be used at the relative pressure range of 0.1-0.3 P/P0.
(§1) The specific surface area (SSA) and particle size distribution (PSD) were determined for two batches (A and B) of crystalline rounded particles of compound (I) prepared according to the present invention. The particles of the two batches were then milled followed by the determination of SSA and PSD.
The specific surface area was measured using the three-point nitrogen adsorption technique based on the Brunauer, Emmett and Teller (BET) theory using TriStar 3000 automated gas adsorption analyzer (Micromeritics, Inc.). The samples were vacuum dried for 20 hours in 40° C. The volumetric method was applied at the relative pressure range 0.1-0.3 P/P0.

[2] = Particle size distribution by laser light diffraction (Beckman Coulter LS13320, dry powder); conditions: for Volume particle size, Dv10 / Volume particle size, Dv50 / Volume particle size, Dv90: before/after milling
Experimental: The particle size distribution of crystalline particles of compound (I) can be analyzed by laser light diffraction, for example using Beckman Coulter LS13320 laser diffraction particle size analyzer equipped with Tornado Dry Powder System using air as dispersion medium with measurement pressure 24″H2O±2″H2O, sample amount 10 ml, system controlled target 5% for obscuration and applying Fraunhofer optical model.
The parameters considered are the volumetric diameters in μm of the 10th, 50th and 90th percentiles of the particles, expressed as Dv10, Dv50 and Dv90 respectively, which are determined by assuming that the particles have a geometric shape equivalent to a sphere.
The particle size distribution of the crystalline rounded particles of compound (I) prepared according to the present invention was determined by laser light diffraction. The determination was carried out by using Beckman Coulter LS13320 laser diffraction particle size analyzer equipped with Tornado Dry Powder System using air as dispersion medium with measurement pressure 24″H2O±2″H2O, sample amount 10 ml, system controlled target 5% for obscuration and applying Fraunhofer optical model. According to the analysis, Dv10 value of the particles is 359 μm, Dv50 is 632 μm and Dv90 is 925 μm.
as §1

[3] = Solubility in water (statement)
[4] = Example 4, crystalline rounded particles, FIG. 1

Specific surface area [1] [m^2/g]	Volume particle size, Dv10 ([2]; Table 2, batch B) [μm]	Volume particle size, Dv50 ([2]; Table 2, batch B) [μm]	Volume particle size, Dv90 ([2]; Table 2, batch B) [μm]	SSA [1] [m^2/g]	Volume particle size, Dv10 ([2]; Table 1, batch A) [μm]	Volume particle size, Dv50 ([2]; Table 1, batch A) [μm]	Volume particle size, Dv90 ([2]; Table 1, batch A) [μm]	Compound	other results
13	3	96	292	–	–	–	–	CC(O)c1cc(C(=O)N[C@@H](C)Cn2ccc(-c3ccc(C#N)c(Cl)c3)n2)n[nH]1 (stereo partly drawn) [B (milled)]	–
12	176	389	826	–	–	–	–	CC(O)c1cc(C(=O)N[C@@H](C)Cn2ccc(-c3ccc(C#N)c(Cl)c3)n2)n[nH]1 (stereo partly drawn) [B (unmilled)]	–

Further lines, the compound ahead of its results:

Compound	Specific surface area [1] [m^2/g]	Volume particle size, Dv10 ([2]; Table 2, batch B) [μm]	Volume particle size, Dv50 ([2]; Table 2, batch B) [μm]	Volume particle size, Dv90 ([2]; Table 2, batch B) [μm]	SSA [1] [m^2/g]	Volume particle size, Dv10 ([2]; Table 1, batch A) [μm]	Volume particle size, Dv50 ([2]; Table 1, batch A) [μm]	Volume particle size, Dv90 ([2]; Table 1, batch A) [μm]	other results
CC(O)c1cc(C(=O)N[C@@H](C)Cn2ccc(-c3ccc(C#N)c(Cl)c3)n2)n[nH]1 (stereo partly drawn) [compound (I), N—((S)-1-(3-(3-chloro-4-cyanophenyl)-1H-pyrazol-1-yl)-propan-2-yl)-5-(1-hydroxyethyl)-1H-pyrazole-3-carboxamide]	–	–	–	–	–	–	–	–	Change of specific surface area (SSA) on milling to reduced particle size ([1]; batches A and B, milled vs unmilled): did not significantly change; Solubility in water [3]: poorly soluble in water; Dv10 [2, 4]: 359 μm; Dv50 [2, 4]: 632 μm; Dv90 [2, 4]: 925 μm
CC(O)c1cc(C(=O)N[C@@H](C)Cn2ccc(-c3ccc(C#N)c(Cl)c3)n2)n[nH]1 (stereo partly drawn) [A (milled)]	–	–	–	–	14	2	36	218	–
CC(O)c1cc(C(=O)N[C@@H](C)Cn2ccc(-c3ccc(C#N)c(Cl)c3)n2)n[nH]1 (stereo partly drawn) [A (unmilled)]	–	–	–	–	13	171	407	625	–
